This passage reports Ki results from patent publication US6642227B2, “Inhibitors of c-Jun N-terminal kinases (JNK) and other protein kinases” (Vertex Pharmaceuticals Incorporated, priority 2001, dated 2003).

In assay [1] the target is T1, human Src kinase (Homo sapiens, UniProt P12931).
T1 construct: full length recombinant human Src kinase; purchased Upstate Biotechnology 14-117; host or cells: baculovirus-infected cells
Kind of assay: Src inhibition assay (A: radioactivity-based or B: spectrophotometric coupled-enzyme assay). The settings on record: assay A or B not specified; read-out: Src Activity (Ki class A-C). It counts as biochemical. As to the method:
The compounds were evaluated as inhibitors of human Src kinase using either a radioactivity-based assay or spectrophotometric assay.
The compounds were assayed as inhibitors of full length recombinant human Src kinase (from Upstate Biotechnology, cat. no. 14-117) expressed and purified from baculo viral cells. Src kinase activity was monitored by following the incorporation of ^33p from ATP into the tyrosine of a random poly Glu-Tyr polymer substrate of composition, Glu:Tyr=4:1 (Sigma, cat. no. P-0275). The following were the final concentrations of the assay components: 0.05 M HEPES, pH 7.6, 10 mM MgCl2, 2 mM DTT, 0.25 mg/ml BSA, 10 μM ATP (1-2 uCi ^33P-ATP per reaction), 5 mg/ml poly Glu-Tyr, and 1-2 units of recombinant human Src kinase. In a typical assay, all the reaction components with the exception of ATP were pre-mixed and aliquoted into assay plate wells.
Inhibitors dissolved in DMSO were added to the wells to give a final DMSO concentration of 2.5%. The assay plate was incubated at 30° C. for 10 min before initiating the reaction with ^33P-ATP. After 20 min of reaction, the reactions were quenched with 150 μl of 10% trichloroacetic acid (TCA) containing 20 mM Na3PO4. The quenched samples were then transferred to a 96-well filter plate (Whatman, UNI-Filter GF/F Glass Fiber Filter, cat no. 7700-3310) installed on a filter plate vacuum manifold. Filter plates were washed four times with 10% TCA containing 20 mM Na3PO4 and then 4 times with methanol. 200 μl of scintillation fluid was then added to each well. The plates were sealed and the amount of radioactivity associated with the filters was quantified on a TopCount scintillation counter. The radioactivity incorporated was plotted as a function of the inhibitor concentration. The data was fitted to a competitive inhibition kinetics model to get the Ki for the compound.
The ADP produced from ATP by the human recombinant Src kinase-catalyzed phosphorylation of poly Glu-Tyr substrate was quanitified using a coupled enzyme assay (Fox et al (1998) Protein Sci 7, 2249). In this assay one molecule of NADH is oxidised to NAD for every molecule of ADP produced in the kinase reaction. The disappearance of NADH can be conveniently followed at 340 nm.
The following were the final concentrations of the assay components: 0.025 M HEPES, pH 7.6, 10 mM MgCl2, 2 mM DTT, 0.25 mg/ml poly Glu-Tyr, and 25 nM of recombinant human Src kinase. Final concentrations of the components of the coupled enzyme system were 2.5 mM phosphoenolpyruvate, 200 μM NADH, 30 μg/ml pyruvate kinase and 10 μg/ml lactate dehydrogenase.
In a typical assay, all the reaction components with the exception of ATP were pre-mixed and aliquoted into assay plate wells. Inhibitors dissolved in DMSO were added to the wells to give a final DMSO concentration of 2.5%. The assay plate was incubated at 30 C. for 10 min before initiating the reaction with 100 μM ATP. The absorbance change at 340 nm with time, the rate of the reaction, was monitored on a molecular devices plate reader. The data of rate as a function of the inhibitor concentration was fitted to compettive inhibition kinetics model to get the Ki for the compound.

Assay [2] concerns the target human Lck kinase (UniProt P06239). Put plainly: Lck inhibition assay (A: radioactivity-based or B: spectrophotometric coupled-enzyme assay). It counts as biochemical. The note with it: read-out: Lck Activity (Ki rating). As to the method:
The compounds were evaluated as inhibitors of human Lck kinase using either a radioactivity-based assay or spectrophotometric assay.
The compounds were assayed as inhibitors of full length bovine thymus Lck kinase (from Upstate Biotechnology, cat. no. 14-106) expressed and purified from baculo viral cells. Lck kinase activity was monitored by following the incorporation of ^33p from ATP into the tyrosine of a random poly Glu-Tyr polymer substrate of composition, Glu:Tyr=4:1 (Sigma, cat. no. P-0275). The following were the final concentrations of the assay components: 0.025 M HEPES, pH 7.6, 10 mM MgCl2, 2 mM DTT, 0.25 mg/ml BSA, 10 μM ATP (1-2 μCi ^33P-ATP per reaction), 5 mg/ml poly Glu-Tyr, and 1-2 units of recombinant human […] kinase. In a typical assay, all the reaction components with the exception of ATP were pre-mixed and aliquoted into assay plate wells. Inhibitors dissolved in DMSO were added to the wells to give a final DMSO concentration of 2.5%. The assay plate was incubated at 30 C. for 10 min before initiating the reaction with ^33P-ATP. After 20 min of reaction, the reactions were quenched with 150 μl of 10% trichloroacetic acid (TCA) containing 20 mM Na3PO4. The quenched samples were then transferred to a 96-well filter plate (Whatman, UNI-Filter GF/F Glass Fiber Filter, cat no. 7700-3310) installed on a filter plate vacuum manifold. Filter plates were washed four times with 10% TCA containing 20 mM Na3PO4 and then 4 times with methanol. 200 μl of scintillation fluid was then added to each well. The plates were sealed and the amount of radioactivity associated with the filters was quantified on a TopCount scintillation counter. The radioactivity incorporated was plotted as a function of the inhibitor concentration. The data was fitted to a competitive inhibition kinetics model to get the Ki for the compound.
The ADP produced from ATP by the human recombinant Lck kinase-catalyzed phosphorylation of poly Glu-Tyr substrate was quanitified using a coupled enzyme assay (Fox et al (1998) Protein Sci 7, 2249). In this assay one molecule of NADH is oxidised to NAD for every molecule of ADP produced in the kinase reaction. The disappearance of NADH can be conveniently followed at 340 nm.
The following were the final concentrations of the assay components: 0.025 M HEPES, pH 7.6, 10 mM MgCl2, 2 mM DTT, 5 mg/ml poly Glu-Tyr, and 50 nM of recombinant human Lck kinase. Final concentrations of the components of the coupled enzyme system were 2.5 mM phosphoenolpyruvate, 200 μM NADH, 30 μg/ml pyruvate kinase and 10 μg/ml lactate dehydrogenase.
In a typical assay, all the reaction components with the exception of ATP were pre-mixed and aliquoted into assay plate wells. Inhibitors dissolved in DMSO were added to the wells to give a final DMSO concentration of 2.5%. The assay plate was incubated at 30° C. for 10 min before initiating the reaction with 150 μM ATP. The absorbance change at 340 nm with time, the rate of the reaction, was monitored on a molecular devices plate reader. The data of rate as a function of the inhibitor concentration was fitted to competitive inhibition kinetics model to get the Ki for the compound.

SMILES strings stand for the structures.

T1 sequence (P12931 whole entry): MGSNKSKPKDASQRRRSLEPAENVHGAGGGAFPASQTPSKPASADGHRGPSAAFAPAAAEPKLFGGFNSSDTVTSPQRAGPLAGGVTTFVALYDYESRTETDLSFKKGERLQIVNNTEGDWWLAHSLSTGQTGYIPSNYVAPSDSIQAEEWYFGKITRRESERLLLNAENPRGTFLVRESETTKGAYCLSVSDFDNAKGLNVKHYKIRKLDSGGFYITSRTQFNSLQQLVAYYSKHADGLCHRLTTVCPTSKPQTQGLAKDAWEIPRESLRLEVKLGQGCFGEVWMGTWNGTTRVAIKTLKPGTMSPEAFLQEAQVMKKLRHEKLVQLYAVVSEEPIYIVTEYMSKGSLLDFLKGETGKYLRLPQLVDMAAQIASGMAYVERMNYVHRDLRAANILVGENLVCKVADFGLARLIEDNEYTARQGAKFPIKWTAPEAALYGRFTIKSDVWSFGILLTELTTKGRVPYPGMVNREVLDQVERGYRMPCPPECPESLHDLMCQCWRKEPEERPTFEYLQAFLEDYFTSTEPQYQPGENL

In the case of `CSc1sc(-c2nc(Nc3cccc(OCCN4CCC(CO)CC4)c3)ncc2C)c(-c2cccnc2)c1C#N` [VI-120], the Ki in assay [1] and in assay [2] was less than 100 nM throughout.

As to `CSc1sc(-c2nc(Nc3cccc(OCCCN4CCOCC4)c3)ncc2C)c(-c2cccnc2)c1C#N` [VI-117], the Ki in assay [1] and in assay [2] was 100 to 1000 nM in each case.

On to `CSc1sc(-c2nc(Nc3cccc(OCCCN4CCNCC4)c3)ncc2C)c(-c2cccnc2)c1C#N` [VI-118], for which the Ki in assay [1] was 100 to 1000 nM; in assay [2], less than 100 nM.

For the molecule `CCCCS(=O)(=O)Nc1cccc(Nc2nccc(-c3sc(SC)c(C#N)c3-c3cccnc3)n2)c1` [VI-141], the Ki in assay [1] and in assay [2] was less than 100 nM throughout.

As for `CSc1sc(-c2ccnc(Nc3cccc(OCCCNCCO)c3)n2)c(-c2cccc(O)c2)c1C#N` [VI-134], the Ki in assay [1] and in assay [2] was less than 100 nM throughout.

With `CSc1sc(-c2ccnc(Nc3cccc(OCCCNCCCO)c3)n2)c(-c2cccc(OCc3ccccc3)c2)c1C#N` [VI-133], the Ki in assay [1] and in assay [2] was less than 100 nM throughout.

For the molecule `COCCNCCCOc1cccc(Nc2ncc(C)c(-c3sc(SC)c(C#N)c3-c3cccnc3)n2)c1` [VI-20], the Ki in assay [1] and in assay [2] was less than 100 nM each time.

For the molecule `CSc1sc(-c2ccnc(Nc3cccc(OCCCNCCO)c3)n2)c(-c2cccc(OCc3ccccc3)c2)c1C#N` [VI-132], the Ki was 100 to 1000 nM in assay [1] and less than 100 nM in assay [2].

For `CCNc1sc(-c2ccnc(Nc3cccc(OC)c3)n2)c(-c2ccccc2)c1C(=O)OCC` [IIa-90, 2-Ethylamino-5-[2-(3-methoxy-phenylamino)-pyrimidin-4-yl]-4-phenyl-thiophene-3-carboxylic acid ethyl ester], the figures for the inhibitory constant (Ki) in assay [1] and in assay [2] were more than 1000 nM and 100 to 1000 nM, respectively.

For `CSc1sc(-c2nc(Nc3cccc(OCCNCCO)c3)ncc2C)c(-c2cccnc2)c1C#N` [VI-119], the values for the Ki in assay [1] and in assay [2] were 100 to 1000 nM and less than 100 nM, respectively.

As for `CSc1sc(-c2nc(Nc3cccc(OCCCN4CCC[C@H]4CO)c3)ncc2C)c(-c2cccnc2)c1C#N` [VI-24], the Ki in assay [1] and in assay [2] was less than 100 nM in each case.

Consider `CSc1sc(-c2ccnc(Nc3cccc(OCCCNCCCO)c3)n2)c(-c2cccc(O)c2)c1C#N` [VI-135], for which the Ki in assay [1] and in assay [2] was less than 100 nM each time.

With `CSc1sc(-c2ccnc(Nc3cccc(NC(=O)CCCNC(C)=O)c3)n2)c(-c2cccnc2)c1C#N` [VI-130], the Ki in assay [1] and in assay [2] was less than 100 nM throughout.

Consider `N#Cc1c(O)sc(-c2ccnc(Nc3cccc(OCc4ccccc4)c3)n2)c1-c1ccccc1` [IIa-42, 5-[2-(3-Benzyloxy-phenylamino)-pyrimidin-4-yl]-2-hydroxy-4-phenyl-thiophene-3-carbonitrile], for which the Ki in assay [1] and in assay [2] was less than 100 nM each time.
